Assay results published in patent US10689392B2, “Anti-cancer compounds targeting ral GTPases and methods of using the same” (The Regents of the University of Colorado, a body corporate, priority 2011, dated 2020).
Where two headings read alike, the source gives them in different places.

Tests used:
[1] = tested on: MiaPaCa2 pancreatic cell line; settings: cited from earlier work
[2] = Pharmacokinetics in mice after intraperitoneal or oral administration; format: in vivo; settings: mouse, blood; for half-life: read-out: t½ (converted)
Method: The pharmacokinetics of certain Ral-GTPase inhibiting compounds of the invention were evaluated in mice. Following intraperitoneal injection or oral administration, blood samples were collected over several hours and drug concentrations were evaluated by capillary coupled with Time of Flight (TOF) spectrometry.

[3] = tested on: bladder cancer cell lines CRL2169, J82, KU7, MGHU4, LULU2, UMUC3; assay: Combination testing with MEK inhibitor AZD6244 in bladder cancer cell lines; format: cell-based, human; settings: in conjunction with MEK inhibitor AZD6244, bladder cancer cell lines
[4] = tested on: lung cancer cell lines A549, H2009, H358, H460, SW1573; assay: Combination testing with MEK inhibitor AZD6244 in lung cancer cell lines; format: cell-based, human; settings: in conjunction with MEK inhibitor AZD6244, lung cancer cell lines
RalA = biological target: T1, RalA (Homo sapiens, UniProt P11233); assay: RalA activity in H2122 xenograft tumors, RalBP1 pull-down; format: in vivo, mice; settings: single IP dose 50 mg/Kg, tumors collected 2 h (RBC10) or 3 h (RBC8) after injection, FIG. 12A
T1 construct: Xenograft tumors were collected 2 h (RBC10) or 3 h (RBC8) after injection; from tissue; host or cells: H2122 human lung cancer xenograft tumours grown subcutaneously in female nude mice
T1 sequence (P11233 1-206): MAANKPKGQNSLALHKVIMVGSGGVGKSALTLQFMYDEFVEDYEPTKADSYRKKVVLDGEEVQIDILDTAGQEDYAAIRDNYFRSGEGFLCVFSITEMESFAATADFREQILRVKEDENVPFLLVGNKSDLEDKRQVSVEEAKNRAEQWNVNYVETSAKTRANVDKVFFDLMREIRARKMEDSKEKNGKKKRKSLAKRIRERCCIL
Method: (§1) Human lung cancer cell line H2122 was inoculated subcutaneously into female nude mice and allowed to grow until tumors reached an average size of 200 mm^3. Mice were given a single IP dose of 50 mg/Kg RBC8, RBC10, or DMSO control. Xenograft tumors were collected 2 h (RBC10) or 3 h (RBC8) after injection. RalA and RalB activity in tumors were measured by pull-down assay using RalBP1 agarose beads and normalized to total protein.

RalB = biological target: T2, RalB (Homo sapiens, UniProt P11234); assay: RalB activity in H2122 xenograft tumors, RalBP1 pull-down; format: in vivo, mice; settings: single IP dose 50 mg/Kg, tumors collected 2 h (RBC10) or 3 h (RBC8) after injection, FIG. 12B
T2 construct: Xenograft tumors were collected 2 h (RBC10) or 3 h (RBC8) after injection; from tissue; host or cells: H2122 human lung cancer xenograft tumours grown subcutaneously in female nude mice
T2 sequence (P11234 1-206): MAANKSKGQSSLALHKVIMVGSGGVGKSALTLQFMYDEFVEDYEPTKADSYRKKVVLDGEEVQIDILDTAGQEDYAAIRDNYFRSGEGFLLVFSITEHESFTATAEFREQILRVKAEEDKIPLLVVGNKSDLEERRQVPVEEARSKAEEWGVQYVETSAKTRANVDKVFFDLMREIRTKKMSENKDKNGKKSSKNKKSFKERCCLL
Method: as §1

AUC(0-inf) ([2]; intraperitoneal (IP)) [ng·h/mL]	AUC(0-t) ([2]; intraperitoneal (IP)) [ng·h/mL]	Cmax ([2]; intraperitoneal (IP)) [µM]	Tmax ([2]; intraperitoneal (IP)) [h]	half-life ([2]; intraperitoneal (IP)) [h]	AUC(0-inf) ([2]; oral (PO)) [ng·h/mL]	AUC(0-t) ([2]; oral (PO)) [ng·h/mL]	Cmax ([2]; oral (PO)) [µM]	Tmax ([2]; oral (PO)) [h]	half-life ([2]; oral (PO)) [h]	RalA activity in tumors (RalA)	RalB activity in tumors (RalB)	SMILES	in vitro growth and survival [1]	efficacy of the combination with AZD6244 [3]	efficacy of the combination with AZD6244 [4]
–	–	–	–	–	–	–	–	–	–	–	–	COC(=O)[C@H](CC(C)C)NC(=O)N1CCN(Cc2nc[nH]c2C)C(=O)[C@@H]1Cc1ccccc1 [GGTI-2417]	inhibit the in vitro growth and survival	–	–
30500	30300	23.4	1	3.7	5220	4750	2.3	1	1.9	inhibition of RalA	inhibition of RalB	CCCCC(=O)N1c2ccccc2NC2=C(C(=O)CCC2)C1c1ccccc1Cl (stereo not drawn) [RBC10, 11-(2-chlorophenyl)-10-pentanoyl-2,3,4,5,10,11-hexahydro-1H-dibenzo[b,e][1,4]diazepin-1-one]	–	synergistic efficacy	synergistic efficacy
